In ChEMBL document CHEMBL3045592, “Studies of O,O-dimethyl α-(2,4-dichlorophenoxyacetoxy)ethylphosphonate (HW02) as a new herbicide. 1. Synthesis and herbicidal activity of HW02 and analogues as novel inhibitors of pyruvate dehydrogenase complex” (J Agric Food Chem, 2011):

Legend:
Type in all cases: functional
Medicago sativa [1] = assay: Post-emergence herbicidal activity against Medicago sativa (alfalfa) assessed as growth inhibition at 1500 ai g/ha after 20 days by green house test
Amaranthus retroflexus [2] = assay: Post-emergence herbicidal activity against Amaranthus retroflexus assessed as growth inhibition at 1500 ai g/ha after 20 days by green house test
[3] = tested on: Brassica rapa subsp. oleifera; assay: Post-emergence herbicidal activity against Brassica rapa subsp. oleifera Si Yue Man assessed as growth inhibition at 1500 ai g/ha after 20 days by green house test
Digitaria sanguinalis [4] = assay: Post-emergence herbicidal activity against Digitaria sanguinalis (hairy crabgrass) assessed as growth inhibition at 1500 ai g/ha after 20 days by green house test
Echinochloa crus-galli [5] = assay: Post-emergence herbicidal activity against Echinochloa crus-galli (barnyard grass) assessed as growth inhibition at 1500 ai g/ha after 20 days by green house test
Medicago sativa [6] = assay: Pre-emergence herbicidal activity against Medicago sativa (alfalfa) assessed as growth inhibition at 1500 ai g/ha after 20 days by green house test
Amaranthus retroflexus [7] = assay: Pre-emergence herbicidal activity against Amaranthus retroflexus assessed as growth inhibition at 1500 ai g/ha after 20 days by green house test
[8] = tested on: Brassica rapa subsp. oleifera; assay: Pre-emergence herbicidal activity against Brassica rapa subsp. oleifera Si Yue Man assessed as growth inhibition at 1500 ai g/ha after 20 days by green house test
Digitaria sanguinalis [9] = assay: Pre-emergence herbicidal activity against Digitaria sanguinalis (hairy crabgrass) assessed as growth inhibition at 1500 ai g/ha after 20 days by green house test
Echinochloa crus-galli [10] = assay: Pre-emergence herbicidal activity against Echinochloa crus-galli (barnyard grass) assessed as growth inhibition at 1500 ai g/ha after 20 days by green house test

Compound | growth inhibition (GI) (Medicago sativa [1]) | growth inhibition (GI) (Amaranthus retroflexus [2]) | growth inhibition (GI) [3] | growth inhibition (GI) (Digitaria sanguinalis [4]) | growth inhibition (GI) (Echinochloa crus-galli [5]) | growth inhibition (GI) (Medicago sativa [6]) | growth inhibition (GI) (Amaranthus retroflexus [7]) | growth inhibition (GI) [8] | growth inhibition (GI) (Digitaria sanguinalis [9]) | growth inhibition (GI) (Echinochloa crus-galli [10])
COP(=O)(OC)C(OC(=O)COc1cccc(F)c1)c1cccc([N+](=O)[O-])c1 (stereo not given) | <=50% | <=50% | <=50% | <=50% | <=50% | <=50% | <=50% | <=50% | <=50% | <=50%
COP(=O)(OC)C(OC(=O)COc1cccc(C)c1C)c1ccccc1 (stereo not given) | 50% | <=50% | 75% | <=50% | 50% | 75% | 50% | 90% | <=50% | 75%
COP(=O)(COC(=O)COc1ccccc1)OC [(DIMETHOXYPHOSPHORYL)METHYL 2-PHENOXYACETATE] | <=50% | <=50% | <=50% | <=50% | <=50% | <=50% | <=50% | <=50% | <=50% | <=50%
COP(=O)(OC)C(OC(=O)COc1ccc(F)cc1F)c1cccc([N+](=O)[O-])c1 (stereo not given) | 50% | 75% | 75% | 50% | <=50% | 50% | <=50% | <=50% | 50% | <=50%
COP(=O)(OC)C(OC(=O)COc1ccc(F)cc1Cl)c1ccccc1O (stereo not given) | 90% | 90% | 90% | <=50% | 50% | 90% | 90% | 90% | 90% | 50%
COP(=O)(OC)C(OC(=O)COc1ccccc1[N+](=O)[O-])c1cccc([N+](=O)[O-])c1 (stereo not given) | <=50% | <=50% | <=50% | <=50% | <=50% | <=50% | <=50% | <=50% | <=50% | <=50%
COP(=O)(OC)C(OC(=O)COc1ccc(C(F)(F)F)cc1[N+](=O)[O-])c1cccc([N+](=O)[O-])c1 (stereo not given) | <=50% | <=50% | <=50% | <=50% | <=50% | <=50% | <=50% | <=50% | <=50% | <=50%
COP(=O)(OC)C(C)OC(=O)COc1ccc(Br)cc1 (stereo not given) | 50% | 50% | 75% | <=50% | <=50% | <=50% | <=50% | <=50% | <=50% | <=50%
COP(=O)(OC)C(C)OC(=O)COc1ccc(Cl)c(C)c1 (stereo not given) | 50% | 50% | 50% | <=50% | <=50% | 75% | 75% | 90% | 75% | 75%
COP(=O)(OC)C(OC(=O)COc1ccc(Cl)cc1)c1cccc([N+](=O)[O-])c1 (stereo not given) | 75% | 75% | 75% | 50% | 75% | 90% | 90% | 90% | 90% | 90%
COP(=O)(OC)C(OC(=O)COc1ccc(C)cc1)c1ccccc1 (stereo not given) | 50% | 50% | 50% | <=50% | <=50% | 75% | 75% | 75% | <=50% | <=50%
COP(=O)(OC)C(OC(=O)COc1ccc([N+](=O)[O-])cc1)c1cccc([N+](=O)[O-])c1 (stereo not given) | <=50% | <=50% | <=50% | <=50% | <=50% | <=50% | <=50% | <=50% | <=50% | <=50%
COP(=O)(OC)C(C)OC(=O)COc1ccc(F)cc1F (stereo not given) | 50% | 75% | 75% | 50% | <=50% | 50% | <=50% | <=50% | 75% | <=50%
COP(=O)(OC)C(OC(=O)COc1ccc(Cl)cc1)c1ccccc1O (stereo not given) | 75% | 75% | 75% | <=50% | <=50% | 90% | <=50% | <=50% | 50% | <=50%
COP(=O)(OC)C(C)OC(=O)COc1cccc(F)c1 (stereo not given) | <=50% | <=50% | <=50% | <=50% | <=50% | <=50% | <=50% | <=50% | <=50% | <=50%
COP(=O)(OC)C(OC(=O)COc1ccc(F)cc1Cl)c1cccc([N+](=O)[O-])c1 (stereo not given) | 50% | 90% | 75% | 50% | 75% | 90% | 90% | 90% | 90% | 90%
